# From PubChem BioAssay (NCI)
#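 Method: 48-hour compound exposure of cells in 96-well plates, five concentrations, linear interpolation of endpoints. TGI: concentration producing complete growth inhibition.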
# How the values were obtained:
# Test in all cases: NCI anticancer screen, dose series, 48 h
# 786-0 renal = test system: 786-0 renal
# A498 renal = test system: A498 renal
# A549 NSCLC = test system: A549 NSCLC
# ACHN renal = test system: ACHN renal
# CAKI-1 renal = test system: CAKI-1 renal
# CCRF-CEM leukemia = test system: CCRF-CEM leukemia
# COLO 205 colon = test system: COLO 205 colon
# DLD-1 colon = test system: DLD-1 colon
# DMS 114 small cell lung = test system: DMS 114 small cell lung
# DMS 273 small cell lung = test system: DMS 273 small cell lung
# EKVX NSCLC = test system: EKVX NSCLC
# HCC-2998 colon = test system: HCC-2998 colon
# HCT-116 colon = test system: HCT-116 colon
# HCT-15 colon = test system: HCT-15 colon
# HL-60(TB) leukemia = test system: HL-60(TB) leukemia
# HOP-18 NSCLC = test system: HOP-18 NSCLC
# HOP-62 NSCLC = test system: HOP-62 NSCLC
# HOP-92 NSCLC = test system: HOP-92 NSCLC
# HT29 colon = test system: HT29 colon
# IGROV1 ovarian = test system: IGROV1 ovarian
# K-562 leukemia = test system: K-562 leukemia
# KM12 colon = test system: KM12 colon
# KM20L2 colon = test system: KM20L2 colon
# LOX IMVI melanoma = test system: LOX IMVI melanoma
# LXFL 529 NSCLC = test system: LXFL 529 NSCLC
# M14 melanoma = test system: M14 melanoma
# M19-MEL melanoma = test system: M19-MEL melanoma
# MALME-3M melanoma = test system: MALME-3M melanoma
# MOLT-4 leukemia = test system: MOLT-4 leukemia
# NCI-H226 lung = test system: NCI-H226 lung
# NCI-H23 lung = test system: NCI-H23 lung
# NCI-H460 lung = test system: NCI-H460 lung
# OVCAR-3 ovarian = test system: OVCAR-3 ovarian
# OVCAR-4 ovarian = test system: OVCAR-4 ovarian
# OVCAR-5 ovarian = test system: OVCAR-5 ovarian
# OVCAR-8 ovarian = test system: OVCAR-8 ovarian
# RPMI-8226 leukemia = test system: RPMI-8226 leukemia
# SF-268 CNS = test system: SF-268 CNS
# SF-295 CNS = test system: SF-295 CNS
# SF-539 CNS = test system: SF-539 CNS
# SK-MEL-2 melanoma = test system: SK-MEL-2 melanoma
# SK-MEL-28 melanoma = test system: SK-MEL-28 melanoma
# SK-MEL-5 melanoma = test system: SK-MEL-5 melanoma
# SK-OV-3 ovarian = test system: SK-OV-3 ovarian
# SN12C renal = test system: SN12C renal
# SNB-19 CNS = test system: SNB-19 CNS
# SNB-75 CNS = test system: SNB-75 CNS
# SNB-78 CNS = test system: SNB-78 CNS
# SR leukemia = test system: SR leukemia
# SW-620 colon = test system: SW-620 colon
# TK-10 renal = test system: TK-10 renal
# U251 CNS = test system: U251 CNS
# UACC-257 melanoma = test system: UACC-257 melanoma
# UACC-62 melanoma = test system: UACC-62 melanoma
# UO-31 renal = test system: UO-31 renal
# NCI-H522 lung = test system: NCI-H522 lung
# RXF 393 renal = test system: RXF 393 renal
# XF 498 CNS = test system: XF 498 CNS
# DU-145 prostate = test system: DU-145 prostate
# HS 578T breast = test system: HS 578T breast
# NCI/ADR-RES ovarian = test system: NCI/ADR-RES ovarian
# PC-3 prostate = test system: PC-3 prostate
structure (smiles),measurement,setting,value
c1ccc(CN2CCCCC(Sc3ccccc3)CC2)cc1 (configuration not stated),TGI,786-0 renal,31.6 µM
same,TGI,A498 renal,> 100 µM
same,TGI,A549 NSCLC,> 100 µM
same,TGI,ACHN renal,> 100 µM
same,TGI,CAKI-1 renal,69.6 µM
same,TGI,CCRF-CEM leukemia,43.8 µM
same,TGI,COLO 205 colon,26.2 µM
same,TGI,DLD-1 colon,41.7 µM
same,TGI,DMS 114 small cell lung,44.6 µM
same,TGI,DMS 273 small cell lung,25.1 µM
same,TGI,EKVX NSCLC,> 100 µM
same,TGI,HCC-2998 colon,29.8 µM
same,TGI,HCT-116 colon,43.9 µM
same,TGI,HCT-15 colon,33.5 µM
same,TGI,HL-60(TB) leukemia,46.3 µM
same,TGI,HOP-18 NSCLC,> 100 µM
same,TGI,HOP-62 NSCLC,> 100 µM
same,TGI,HOP-92 NSCLC,78.8 µM
same,TGI,HT29 colon,33.5 µM
same,TGI,IGROV1 ovarian,> 100 µM
same,TGI,K-562 leukemia,35 µM
same,TGI,KM12 colon,> 100 µM
same,TGI,KM20L2 colon,76.3 µM
same,TGI,LOX IMVI melanoma,30.6 µM
same,TGI,LXFL 529 NSCLC,32.6 µM
same,TGI,M14 melanoma,32 µM
same,TGI,M19-MEL melanoma,12.9 µM
same,TGI,MALME-3M melanoma,38.2 µM
same,TGI,MOLT-4 leukemia,50.7 µM
same,TGI,NCI-H226 lung,85.2 µM
same,TGI,NCI-H23 lung,64.3 µM
same,TGI,NCI-H460 lung,42.5 µM
same,TGI,OVCAR-3 ovarian,> 100 µM
same,TGI,OVCAR-4 ovarian,> 100 µM
same,TGI,OVCAR-5 ovarian,45.1 µM
same,TGI,OVCAR-8 ovarian,> 100 µM
same,TGI,RPMI-8226 leukemia,38.9 µM
same,TGI,SF-268 CNS,> 100 µM
same,TGI,SF-295 CNS,> 100 µM
same,TGI,SF-539 CNS,77.4 µM
same,TGI,SK-MEL-2 melanoma,90.5 µM
same,TGI,SK-MEL-28 melanoma,> 100 µM
same,TGI,SK-MEL-5 melanoma,34.1 µM
same,TGI,SK-OV-3 ovarian,> 100 µM
same,TGI,SN12C renal,61.8 µM
same,TGI,SNB-19 CNS,> 100 µM
same,TGI,SNB-75 CNS,> 100 µM
same,TGI,SNB-78 CNS,80.1 µM
same,TGI,SR leukemia,37.7 µM
same,TGI,SW-620 colon,4.98 µM
same,TGI,TK-10 renal,> 100 µM
same,TGI,U251 CNS,31.7 µM
same,TGI,UACC-257 melanoma,> 100 µM
same,TGI,UACC-62 melanoma,> 100 µM
same,TGI,UO-31 renal,28.8 µM
CCC1CC(C)=CCN1S(=O)(=O)c1ccc(C)cc1 (configuration not stated),TGI,786-0 renal,> 100 µM
same,TGI,A498 renal,> 100 µM
same,TGI,A549 NSCLC,> 100 µM
same,TGI,ACHN renal,> 100 µM
same,TGI,CAKI-1 renal,> 100 µM
same,TGI,CCRF-CEM leukemia,75.7 µM
same,TGI,COLO 205 colon,38.4 µM
same,TGI,DMS 114 small cell lung,53.7 µM
same,TGI,DMS 273 small cell lung,67.9 µM
same,TGI,EKVX NSCLC,> 100 µM
same,TGI,HCT-116 colon,> 100 µM
same,TGI,HCT-15 colon,83.7 µM
same,TGI,HL-60(TB) leukemia,18 µM
same,TGI,HOP-62 NSCLC,84.6 µM
same,TGI,HT29 colon,39.3 µM
same,TGI,K-562 leukemia,> 100 µM
same,TGI,KM12 colon,70.8 µM
same,TGI,KM20L2 colon,36 µM
same,TGI,LOX IMVI melanoma,33.6 µM
same,TGI,LXFL 529 NSCLC,> 100 µM
same,TGI,M14 melanoma,57.5 µM
same,TGI,MALME-3M melanoma,61.7 µM
same,TGI,MOLT-4 leukemia,83.6 µM
same,TGI,NCI-H226 lung,80.7 µM
same,TGI,NCI-H460 lung,91.7 µM
same,TGI,NCI-H522 lung,46.4 µM
same,TGI,OVCAR-3 ovarian,44.9 µM
same,TGI,OVCAR-4 ovarian,> 100 µM
same,TGI,OVCAR-5 ovarian,> 100 µM
same,TGI,OVCAR-8 ovarian,> 100 µM
same,TGI,RPMI-8226 leukemia,20.5 µM
same,TGI,SF-268 CNS,62.1 µM
same,TGI,SF-295 CNS,> 100 µM
same,TGI,SF-539 CNS,39.8 µM
same,TGI,SK-MEL-2 melanoma,27.2 µM
same,TGI,SK-MEL-5 melanoma,26.8 µM
same,TGI,SK-OV-3 ovarian,> 100 µM
same,TGI,SN12C renal,24.3 µM
same,TGI,SNB-19 CNS,> 100 µM
same,TGI,SNB-75 CNS,50.6 µM
same,TGI,SR leukemia,32.7 µM
same,TGI,UACC-257 melanoma,> 100 µM
same,TGI,UACC-62 melanoma,57.8 µM
same,TGI,UO-31 renal,66.6 µM
O=C(Nc1cccc([N+](=O)[O-])c1)C(=O)C(C(=O)c1ccccc1F)C1OC(=O)C2C=CC=CC21 (configuration not stated),TGI,A498 renal,> 100 µM
same,TGI,A549 NSCLC,> 100 µM
same,TGI,ACHN renal,> 100 µM
same,TGI,CAKI-1 renal,> 100 µM
same,TGI,CCRF-CEM leukemia,> 100 µM
same,TGI,COLO 205 colon,> 100 µM
same,TGI,DLD-1 colon,> 100 µM
same,TGI,DMS 273 small cell lung,> 100 µM
same,TGI,EKVX NSCLC,> 100 µM
same,TGI,HCC-2998 colon,> 100 µM
same,TGI,HCT-116 colon,48.3 µM
same,TGI,HCT-15 colon,> 100 µM
same,TGI,HL-60(TB) leukemia,64 µM
same,TGI,HOP-62 NSCLC,> 100 µM
same,TGI,HOP-92 NSCLC,> 100 µM
same,TGI,HT29 colon,> 100 µM
same,TGI,IGROV1 ovarian,> 100 µM
same,TGI,K-562 leukemia,> 100 µM
same,TGI,KM12 colon,> 100 µM
same,TGI,KM20L2 colon,> 100 µM
same,TGI,LOX IMVI melanoma,51.7 µM
same,TGI,LXFL 529 NSCLC,> 100 µM
same,TGI,M14 melanoma,> 100 µM
same,TGI,M19-MEL melanoma,> 100 µM
same,TGI,MOLT-4 leukemia,> 100 µM
same,TGI,NCI-H226 lung,52.9 µM
same,TGI,NCI-H23 lung,> 100 µM
same,TGI,NCI-H460 lung,> 100 µM
same,TGI,NCI-H522 lung,55.7 µM
same,TGI,OVCAR-4 ovarian,> 100 µM
same,TGI,OVCAR-5 ovarian,> 100 µM
same,TGI,OVCAR-8 ovarian,> 100 µM
same,TGI,RPMI-8226 leukemia,> 100 µM
same,TGI,RXF 393 renal,48.6 µM
same,TGI,SF-268 CNS,70.6 µM
same,TGI,SF-295 CNS,> 100 µM
same,TGI,SF-539 CNS,67.5 µM
same,TGI,SK-MEL-2 melanoma,> 100 µM
same,TGI,SK-MEL-28 melanoma,> 100 µM
same,TGI,SK-MEL-5 melanoma,> 100 µM
same,TGI,SK-OV-3 ovarian,> 100 µM
same,TGI,SN12C renal,> 100 µM
same,TGI,SNB-19 CNS,> 100 µM
same,TGI,SNB-75 CNS,84.9 µM
same,TGI,SNB-78 CNS,> 100 µM
same,TGI,SR leukemia,84.7 µM
same,TGI,SW-620 colon,> 100 µM
same,TGI,TK-10 renal,> 100 µM
same,TGI,U251 CNS,77.7 µM
same,TGI,UACC-257 melanoma,> 100 µM
same,TGI,UACC-62 melanoma,> 100 µM
same,TGI,UO-31 renal,> 100 µM
same,TGI,XF 498 CNS,> 100 µM
CN(C)[C@H]1CC[C@H]2[C@@H]3CCC4C[C@@H](NC(=O)NC(Cc5ccccc5)c5nccs5)CC[C@]4(C)[C@H]3CC[C@]12C (some centres not stated),TGI,ACHN renal,2.86 µM
same,TGI,CAKI-1 renal,3.11 µM
same,TGI,COLO 205 colon,3.05 µM
same,TGI,DMS 114 small cell lung,3.31 µM
same,TGI,DMS 273 small cell lung,3.86 µM
same,TGI,DU-145 prostate,6.67 µM
same,TGI,HCC-2998 colon,3.16 µM
same,TGI,HCT-116 colon,1.33 µM
same,TGI,HCT-15 colon,2.03 µM
same,TGI,HL-60(TB) leukemia,0.376 µM
same,TGI,HOP-92 NSCLC,2.82 µM
same,TGI,HS 578T breast,5.36 µM
same,TGI,HT29 colon,1.9 µM
same,TGI,KM12 colon,3.44 µM
same,TGI,KM20L2 colon,2.81 µM
same,TGI,LOX IMVI melanoma,3.46 µM
same,TGI,LXFL 529 NSCLC,1.61 µM
same,TGI,M14 melanoma,3.23 µM
same,TGI,M19-MEL melanoma,3.41 µM
same,TGI,MALME-3M melanoma,3.37 µM
same,TGI,NCI-H226 lung,3.89 µM
same,TGI,NCI-H23 lung,3.89 µM
same,TGI,NCI/ADR-RES ovarian,4.83 µM
same,TGI,OVCAR-3 ovarian,3.43 µM
same,TGI,OVCAR-4 ovarian,3.18 µM
same,TGI,OVCAR-5 ovarian,3.2 µM
same,TGI,PC-3 prostate,2.35 µM
same,TGI,RPMI-8226 leukemia,3.28 µM
same,TGI,SF-539 CNS,3.37 µM
same,TGI,SK-MEL-2 melanoma,3.41 µM
same,TGI,SK-MEL-5 melanoma,3.38 µM
same,TGI,SK-OV-3 ovarian,3.09 µM
same,TGI,SN12C renal,3.36 µM
same,TGI,SNB-19 CNS,3.74 µM
same,TGI,SR leukemia,4.14 µM
same,TGI,TK-10 renal,3.89 µM
same,TGI,UACC-257 melanoma,3.63 µM
same,TGI,UACC-62 melanoma,3.46 µM
same,TGI,UO-31 renal,3.38 µM
same,TGI,XF 498 CNS,2.51 µM
